Laboratory results from patent US9028855B2, “Plant additives and uses thereof to modulate the synthesis of membrane glycerolipids in planta” (Commissariat a l'Energie Atomique et aux Energies …, priority 2009, dated 2015).

How the values were obtained:
phopholipase Dz2 = test: PLDz::GUS, follow-up of the expression of the gene encoding phospholipase Dz2 (GUS staining); type: in vivo, A. thaliana; conditions: high phosphate medium + MC2 5 μM, FIG. 10
Procedure: pPLDZ2:GUS-GFP cell line is as described by Cruz-Ramirez et al. (Cruz-Ramirez et al., 2006), and expressed a GUS-GFP fusion under the control of the pldz2 promoter. […] Plants were examined for GUS activity by dipping the samples in a GUS staining solution (50 mM sodium phosphate buffer pH 7.0; 0.01% Triton X-100, 1 mM K3Fe(CN)6, 1 mM K4Fe(CN)6, 1 mg/ml 5-dromo-4-chloro-3-indolyl (3-D-GLUCURONIDE (X-Gluc A) and incubated at 37° C. over-night. After staining, the plants were fixed 2 hours in 50 mM sodium phosphate buffer pH 7.0; 1% glutaraldehyde; 4% formaldehyde. In response to phosphate starvation, the lipid metabolism is modified (Benning and Ohta, 2005). Plants preferentially synthesize sulpho- and galacto-lipids instead of phospholipids. Several enzymes are involved in this remobilisation.

Cyclin B1 = test: CycB1::GUS, follow-up of the expression of the gene encoding Cyclin B1 (meristematic activity marker); type: in vivo, A. thaliana; conditions: high phosphate medium + MC2 5 μM, FIG. 6
Excerpt: pCycB1;1:GUS cell line is as described by Colón-Carmona et al. (Colon-Carmona et al., 1999), and expresses the GUS reporter under the control of the promoter of the cyclin B1 gene. […] In response to phosphate deficiency, CycB1 is less expressed. Suprisingly, in response to MC2, the meristematic activity is not reduced (FIG. 6). Thus, it can be concludes that the primary root growth inhibition observed in response to the molecule is not due to inhibition of the meristematic activity.

wild type seedlings = test: Anthocyanins content (spectrophotometric); type: in vivo, A. thaliana; design: key to Antho: anthocyanin content as A530 - 2.2*A652
Procedure: Anthocyanins were extracted with propanol:HCl:H2O (81:1:18) for 5 min at room temperature and 3 min at 100° C. Samples are centrifuged for 10 min at 4° C. Supernatants were collected and absorption measured at 530 nm and […]. Anthocyanin content was calculated as A530-2.2A652 (Lange et al., 1971).

Acid phosphatase = Acid phosphatase activity in root extract (spectrophotometric); type: in vivo; conditions: 10 days old plants, high phosphate medium + 5 μM MC2, FIG. 4
Procedure: FIG. 4: Acid phosphatase activity was assayed spectrophotometrically in root extract from 10 days old plants grown in high phosphate medium, in low phosphate medium or in high phosphate medium supplied with 5 μM of MC2. Values represent the mean of 3 experiments±SD.
In response to phosphate deficiency, plants are able to secrete phosphatase in soil in order to remobilize phosphate from soil.

With `Cc1cccc(NC=C2C(=O)CC(C)(C)CC2=O)n1` [MC2] the “PLDζ2 expression (in words)” value (phopholipase Dz2) was “strongly expressed”, the “meristematic activity (CycB1 expression, in words)” value (Cyclin B1) was “not reduced” and the “anthocyanins accumulation (in words)” value (wild type seedlings; MC2 5 μM, FIG. 8) was “strong accumulation”. For the same compound, the Antho (wild type seedlings; accumulation of anthocyanes, +P control 46, −P 1008) was 454 and the phosphatase activity (Acid phosphatase) was “inducing phosphatase activity”.
